pIC50: −log10 of the molar value.

Assay [1] deals with constitutive active colorectal cancer cell (CRC) Wnt pathway. The experiment in a line: HCT116 Super TopFlash cellular reporter assay (constitutive active Wnt pathway). Format: cell-based. The following applies: Homo sapiens, HCT-116, 36 h, HCT116 TOP reporter cells, luciferase expression, 36 hours incubation, 50 μM to 15 nM. As for the experimental part:
In order to discover and characterize small molecules which inhibit the constitutive active colorectal cancer cell (CRC) Wnt pathway, a cellular reporter assay was employed. The corresponding assay cell was generated by transfection of the colorectal cancer cell line HCT116 (ATCC, #CCL-247) with the Super TopFlash vector (Morin, Science 275, 1997, 1787-1790; Molenaar et al., Cell 86 (3), 1996, 391-399). The HCT116 cell line is cultivated at 37° C. and 5% CO2 in DMEM/F-12 (Life Technologies, #11320-074), supplemented with 2 mM glutamine, 20 mM HEPES, 1.4 mM pyruvate, 0.15% Na-bicarbonate and 10% foetal bovine serum (GIBCO, #10270), this cancer cell line is pathophysiological relevant since it carries a deletion of position S45 in the β-catenin gene, leading to constitutive active Wnt signaling. Stable transfectants were generated by cotransfection with pcDNA3 and selection of stable transfected cells with 1 mg/ml G418.
(§1) In a parallel approach, HCT116 cells were cotransfected with the FOP control vector and pcDNA3. The FOP vector is identical to the TOP construct, but it contains instead of functional TCF elements a randomized, non-functional sequence. For this transfection a stable transfected cell line was generated as well.
(§2) In preparation of the assay, the two cell lines were plated 24 hrs before at 10000 cells per well of a 384 micro titre plate (MTP) in 30 μL growth medium. Selective inhibitory activity for small molecules on the mutated Wnt pathway was determined after parallel incubation of both (TOP and FOP) HCT116 reporter cell lines with a compound dilution series from 50 μM to 15 nM in steps of 3.16-fold dilutions in CAFTY buffer (130 mM NaCl, 5 mM KCl, 20 mM HEPES, 1 mM MgCl2, 5 mM NaHCO3, pH 7.4) containing 2 mM Ca^2+ and 0.01% BSA. The compounds were thereby serially prediluted in 100% DMSO and thereafter in addition 50 fold into the CAFTY compound dilution buffer (described above). From this dilution 10 μL were added to the cells in 30 μL growth medium and incubated for 36 hours at 37° C. and 5% CO2. Thereafter luciferase assay buffer (1:1 mixture of luciferase substrate buffer (20 mM Tricine, 2.67 mM MgSO4, 0.1 mM EDTA, 4 mM DTT, 270 μM Coenzyme A, 470 μM Luciferin, 530 μM ATP, ph adjusted to pH 7.8 with a sufficient volume of 5M NaOH) and Triton buffer (30 mL Triton X-100, 115 mL glycerol, 308 mg Dithiothreitol, 4.45 g Na2HPO4.2 H2O, 3.03 g Tris.HCL, ad 1 l H20, pH 7.8) was added as equal volume to the compound solution on the cells to determine luciferase expression as a measure of Wnt signaling activity in a luminometer.

In assay [2] the test system is HCT116 FOP control reporter cell line. The experiment in a line: HCT116 FOP control vector reporter assay (non-functional TCF elements). Format: cell-based. Particulars: Homo sapiens, HCT-116, 36 h, HCT116 FOP control reporter cells, luciferase expression, 36 hours incubation, 50 μM to 15 nM; read-out: HCT116 FOPFlash IC50. As to the method:
as §1, §2
Background: Reporter assays use an easily measured gene product as a stand-in for the process of interest.

As for `C[C@H](C(=O)Nc1cc(NC(=O)c2ccc(-c3ccccc3)cc2)ccc1F)N1CCOCC1` [Example 31, N-(4-fluoro-3-{[(2R)-2-(morpholin-4-yl)propanoyl]amino}phenyl)biphenyl-4-carboxamide], the pIC50 (usually the IC50 on a negative log10 scale, so that one unit is a factor of ten) in assay [1] was 5.42; in assay [2] it was not above 4.30.
With `COc1ccc(NC(=O)c2ccc(-c3ccccc3)cc2)cc1NC(=O)CN1CCO[C@@H](CO)C1` [Example 34, N-[3-({[(2R)-2-(hydroxymethyl)morpholin-4-yl]acetyl}amino)-4-methoxyphenyl]biphenyl-4-carboxamide], the pIC50 in assay [1] is 5.97; in assay [2], not above 4.30.
For the compound `COc1ccc(NC(=O)c2ccc(-c3ccccc3)cc2)cc1NC(=O)CN1CCCC(OC)C1` (centres unmarked) [Example 38, N-(4-methoxy-3-{[(3-methoxypiperidin-1-yl)acetyl]amino}phenyl)biphenyl-4-carboxamide], the negative logarithm of the IC50 (pIC50) in assay [1] was 5.70; in assay [2] it was not above 4.30.
With `COCCNCC(=O)Nc1cc(NC(=O)c2ccc(-c3ccccc3)cc2)ccc1OC` [Example 42, N-(4-methoxy-3-{[N-(2-methoxyethyl)glycyl]amino}phenyl)biphenyl-4-carboxamide], the negative logarithm of the IC50 (pIC50) in assay [1] is 5.95; in assay [2], not above 4.30.
Take `COc1ccc(NC(=O)c2ccc(-c3ccccc3)cc2)cc1NC(=O)CN1CCOC[C@H]1CCO` [Example 44, N-[3-({[(3R)-3-(2-hydroxyethyl)morpholin-4-yl]acetyl}amino)-4-methoxyphenyl]biphenyl-4-carboxamide]: the results for the pIC50 in assay [1] and in assay [2] were 5.54 and not above 4.30, respectively.
Taken in the same sequence, the figures for `COc1ccc(NC(=O)c2ccc(-c3ccccc3)cc2)cc1NC(=O)CN1CCC(O)CC1` [Example 45, N-(3-{[(4-hydroxypiperidin-1-yl)acetyl]amino}-4-methoxyphenyl)biphenyl-4-carboxamide] were 5.41 and not above 4.30.
As for `COc1ccc(NC(=O)c2ccc(-c3ccccc3)cc2)cc1NC(=O)CN1CCC2(CCO2)C1` (centres unmarked) [Example 46, N-{4-methoxy-3-[(1-oxa-6-azaspiro[3.4]oct-6-ylacetyl)amino]phenyl}biphenyl-4-carboxamide], the pIC50 was 5.46 in assay [1] and not above 4.30 in assay [2].
Consider `COc1ccc(NC(=O)c2ccc(-c3ccccc3)cc2)cc1NC(=O)CN1CCN(C)CC1` [Example 47, N-(4-methoxy-3-{[(4-methylpiperazin-1-yl)acetyl]amino}phenyl)biphenyl-4-carboxamide], for which the negative logarithm of the IC50 (pIC50) in assay [1] is 6.14; in assay [2] it was 4.47.
For the compound `COCCN(C)CC(=O)Nc1cc(NC(=O)c2ccc(-c3ccccc3)cc2)ccc1OC` [Example 49, N-(4-methoxy-3-{[N-(2-methoxyethyl)-N-methylglycyl]amino}phenyl)biphenyl-4-carboxamide], the negative-log IC50 (pIC50) was 5.58 in assay [1] and not above 4.30 in assay [2].
As to `CCN1CCN(CC(=O)Nc2cc(NC(=O)c3ccc(-c4ccccc4)cc3)ccc2OC)CC1` [Example 50, N-(3-{[(4-ethylpiperazin-1-yl)acetyl]amino}-4-methoxyphenyl)biphenyl-4-carboxamide], the negative logarithm of the IC50 (pIC50) in assay [1] was 5.44; in assay [2], 4.64.
For `COc1ccc(NC(=O)c2ccc(-c3ccccc3)cc2)cc1NC(=O)CN1CCN(S(C)(=O)=O)CC1` [Example 51, N-[4-methoxy-3-({[4-(methylsulfonyl)piperazin-1-yl]acetyl}amino)phenyl]biphenyl-4-carboxamide], the results for the negative-log IC50 (pIC50) in assay [1] and in assay [2] were 5.50 and not above 4.30, respectively.
Consider `COc1ccc(NC(=O)c2ccc(-c3ccccc3)cc2)cc1NC(=O)CN1CCOCC1` [Example 52, N-{4-methoxy-3-[(morpholin-4-ylacetyl)amino]phenyl}biphenyl-4-carboxamide], for which the pIC50 is 6.33 in assay [1] and not above 4.30 in assay [2].
With `COc1ccc(NC(=O)c2ccc(-c3ccccc3)cc2)cc1NC(=O)[C@H](C)N1CCOCC1` [Example 54, N-(4-methoxy-3-{[(2S)-2-(morpholin-4-yl)propanoyl]amino}phenyl)biphenyl-4-carboxamide], the negative-log IC50 (pIC50) in assay [1] is 6.46; in assay [2], not above 4.30.
Take `COc1ccc(NC(=O)c2ccc(-c3ccccc3)cc2)cc1NC(=O)[C@@H](C)N1CCOCC1` [Example 55, N-(4-methoxy-3-{[(2R)-2-(morpholin-4-yl)propanoyl]amino}phenyl)biphenyl-4-carboxamide]: the negative logarithm of the IC50 (pIC50) in assay [1] is 6.08; in assay [2] it was not above 4.30.
As for `COc1ccc(NC(=O)c2ccc(-c3ccccc3)cc2)cc1NC(=O)[C@@H](C)N1CC2CCC(C1)O2` [Example 57, N-(4-methoxy-3-{[(2R)-2-(8-oxa-3-azabicyclo[3.2.1]oct-3-yl)propanoyl]amino}phenyl)biphenyl-4-carboxamide], the pIC50 in assay [1] was 6.31; in assay [2] it was not above 4.30.
For the compound `C[C@H](C(=O)Nc1cc(NC(=O)c2ccc(-c3ccccc3)cc2)ccc1OC(F)(F)F)N1CC2CCC(C1)O2` [Example 60, N-[3-{[(2R)-2-(8-oxa-3-azabicyclo[3.2.1]oct-3-yl)propanoyl]amino}-4-(trifluoromethoxy)phenyl]biphenyl-4-carboxamide], the pIC50 in assay [1] is 6.24; in assay [2], not above 4.30.
Taken in the same sequence, the figures for `C[C@H](C(=O)Nc1cc(NC(=O)c2ccc(-c3ccccc3)cc2)ccc1OC(F)(F)F)N1CCOCC1` [Example 63, N-[3-{[(2R)-2-(morpholin-4-yl)propanoyl]amino}-4-(trifluoromethoxy)phenyl]biphenyl-4-carboxamide] were 6.58 and not above 4.30.
Take `COc1ccc(NC(=O)c2ccc(-c3ccccc3)cc2)cc1N(Cc1ccccc1)C(=O)CN1CCOCC1` [Example 64, N-{3-[benzyl(morpholin-4-ylacetyl)amino]-4-methoxyphenyl}biphenyl-4-carboxamide]: the negative logarithm of the IC50 (pIC50) in assay [1] is 5.46; in assay [2], 4.32.
On to `COc1ccc(NC(=O)c2ccc(-c3ccccc3)cc2)cc1N(C)C(=O)CN1CCOCC1` [Example 65, N-{4-methoxy-3-[methyl(morpholin-4-ylacetyl)amino]phenyl}biphenyl-4-carboxamide], for which the pIC50 is 5.66 in assay [1] and 4.55 in assay [2].
With `CC(C)(C)c1ccc(NC(=O)c2ccc(-c3ccccc3)cc2)cc1NC(=O)CN1CCOCC1` [Example 67, N-{4-tert-butyl-3-[(morpholin-4-ylacetyl)amino]phenyl}biphenyl-4-carboxamide], the negative-log IC50 (pIC50) in assay [1] is 6.68; in assay [2], 5.01.
For the compound `O=C(CN1CCOCC1)Nc1cc(NC(=O)c2ccc(-c3ccccc3)cc2)ccc1Br` [Example 68, N-{4-bromo-3-[(morpholin-4-ylacetyl)amino]phenyl}biphenyl-4-carboxamide], the results for the pIC50 in assay [1] and in assay [2] were 6.29 and not above 4.30, respectively.
With `O=C(CN1CCOCC1)Nc1cc(NC(=O)c2ccc(-c3ccccc3)cc2)ccc1Cl` [Example 69, N-{4-chloro-3-[(morpholin-4-ylacetyl)amino]phenyl}biphenyl-4-carboxamide], the pIC50 was 6.09 in assay [1] and 5.03 in assay [2].
For `Cc1ccc(NC(=O)c2ccc(-c3ccccc3)cc2)cc1NC(=O)CN1CCOCC1` [Example 70, N-{4-methyl-3-[(morpholin-4-ylacetyl)amino]phenyl}biphenyl-4-carboxamide], the negative-log IC50 (pIC50) was 5.87 in assay [1] and not above 4.30 in assay [2].
On to `COC(=O)c1cccc(-c2ccc(C(=O)Nc3ccc(OC)c(NC(=O)CN4CCOCC4)c3)cc2)c1` [Example 77, methyl 4′-({4-methoxy-3-[(morpholin-4-ylacetyl)amino]phenyl}carbamoyl)biphenyl-3-carboxylate], for which the negative logarithm of the IC50 (pIC50) was 5.40 in assay [1] and not above 4.30 in assay [2].
`COc1ccc(NC(=O)c2ccc(-c3cccc(C(F)(F)F)c3)cc2)cc1NC(=O)CN1CCOCC1` [Example 78, N-{4-methoxy-3-[(morpholin-4-ylacetyl)amino]phenyl}-3′-(trifluoromethyl)biphenyl-4-carboxamide]: the negative-log IC50 (pIC50) in assay [1] was 5.54; in assay [2], not above 4.30.
